For four molecules, AC50, IC50 and EC50 results are on record in ChEMBL document CHEMBL1201862, “PubChem BioAssay data set” (2004).

“And” between values parts separate entries of the source, which are not always exact repeats. Equal entries are not always repeated. The source made the active and inactive calls.

One data set addresses T1, Cytochrome P450 1A2 (Homo sapiens, UniProt P05177).
T1 sequence (P05177 whole entry): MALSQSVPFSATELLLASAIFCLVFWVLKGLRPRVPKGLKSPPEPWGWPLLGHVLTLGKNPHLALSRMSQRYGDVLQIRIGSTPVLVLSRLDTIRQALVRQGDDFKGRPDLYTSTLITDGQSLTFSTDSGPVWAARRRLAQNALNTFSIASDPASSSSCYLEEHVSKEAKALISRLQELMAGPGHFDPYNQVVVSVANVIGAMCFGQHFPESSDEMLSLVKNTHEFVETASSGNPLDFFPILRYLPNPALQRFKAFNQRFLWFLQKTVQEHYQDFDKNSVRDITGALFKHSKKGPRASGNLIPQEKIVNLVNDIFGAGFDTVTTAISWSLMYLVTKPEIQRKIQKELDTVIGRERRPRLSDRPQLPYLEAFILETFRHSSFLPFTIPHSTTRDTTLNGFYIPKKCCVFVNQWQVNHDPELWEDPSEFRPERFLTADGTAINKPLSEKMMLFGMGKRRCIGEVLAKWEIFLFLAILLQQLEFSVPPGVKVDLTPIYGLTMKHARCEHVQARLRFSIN

For data set [1], the target named is T2, Kappa-type opioid receptor (Homo sapiens, UniProt P41145). The data set can be described thus: KOR antagonists by imaging, SAR follow-up, image-based (AID 2348). The format is functional.
T2 sequence (P41145 whole entry): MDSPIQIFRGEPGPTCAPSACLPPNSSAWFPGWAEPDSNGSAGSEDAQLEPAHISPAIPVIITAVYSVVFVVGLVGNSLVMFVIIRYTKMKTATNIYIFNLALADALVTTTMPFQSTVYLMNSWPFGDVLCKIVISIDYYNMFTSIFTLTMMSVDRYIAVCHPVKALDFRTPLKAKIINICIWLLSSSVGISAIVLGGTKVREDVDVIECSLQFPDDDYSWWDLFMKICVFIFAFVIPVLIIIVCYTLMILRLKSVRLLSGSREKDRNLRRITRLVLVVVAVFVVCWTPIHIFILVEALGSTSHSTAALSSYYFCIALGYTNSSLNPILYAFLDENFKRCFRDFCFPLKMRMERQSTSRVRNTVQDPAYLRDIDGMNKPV
The target in data set [2] is T3, Mu-type opioid receptor (Homo sapiens, UniProt P35372). Put plainly: MOR antagonists, SAR follow-up, image-based (AID 2420).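 Also: compounds added before stimulation of receptor with agonist DAMGO.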 The format is functional.
T3 sequence (P35372 whole entry): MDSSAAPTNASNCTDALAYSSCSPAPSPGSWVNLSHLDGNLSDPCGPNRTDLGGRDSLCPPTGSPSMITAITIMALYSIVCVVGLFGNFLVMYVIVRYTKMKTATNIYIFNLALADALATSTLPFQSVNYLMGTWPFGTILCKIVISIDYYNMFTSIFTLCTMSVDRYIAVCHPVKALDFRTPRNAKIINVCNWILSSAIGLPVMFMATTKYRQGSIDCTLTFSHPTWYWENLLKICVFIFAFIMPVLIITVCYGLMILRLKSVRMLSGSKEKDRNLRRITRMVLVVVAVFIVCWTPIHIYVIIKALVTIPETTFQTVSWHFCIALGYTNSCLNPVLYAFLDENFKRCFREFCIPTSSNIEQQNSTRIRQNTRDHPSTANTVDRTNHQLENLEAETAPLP
The target in data set [3] is T3, Mu-type opioid receptor. The data set can be described thus: MOR agonists by imaging, SAR follow-up, image-based (AID 2352). It is filed as functional.
The target of data set [4] is T4, Delta-type opioid receptor (Homo sapiens, UniProt P41143). Put plainly: DOR antagonists, SAR follow-up, image-based (AID 2357). The format is functional.
T4 sequence (P41143 whole entry): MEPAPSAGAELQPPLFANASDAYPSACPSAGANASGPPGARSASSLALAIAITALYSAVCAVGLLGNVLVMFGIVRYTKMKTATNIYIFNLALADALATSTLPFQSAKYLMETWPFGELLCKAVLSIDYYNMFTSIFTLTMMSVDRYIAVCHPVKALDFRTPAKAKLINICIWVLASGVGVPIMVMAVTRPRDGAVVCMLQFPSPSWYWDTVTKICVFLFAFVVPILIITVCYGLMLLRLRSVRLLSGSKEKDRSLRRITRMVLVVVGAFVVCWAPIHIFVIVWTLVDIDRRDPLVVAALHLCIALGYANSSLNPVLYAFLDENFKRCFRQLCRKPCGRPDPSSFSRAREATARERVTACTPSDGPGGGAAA
Data set [5] has as its target T4, Delta-type opioid receptor. Put plainly: HTS Image-Based Screen for Antagonists of the DOR Receptor. [Related pubchem assays (depositor defined):AID1777, AID1785, AID1786, AID2133]. The format is functional.
In data set [6] the target is T2, Kappa-type opioid receptor. It is filed as functional.
The target in data set [7] is T2, Kappa-type opioid receptor. Put plainly: KOR agonist analogs, imaging readout, SAR follow-up, image-based (AID 2359). It is filed as functional.
Data set [8] deals with T4, Delta-type opioid receptor. The data set can be described thus: DOR agonists, SAR follow-up, image-based (AID 2370). The format is functional.
Data set [9] has as its target T2, Kappa-type opioid receptor. It is filed as functional. This is another data set of the same source.
The target in data set [10] is T2, Kappa-type opioid receptor. Put plainly: SAR analysis of small molecule agonists of the kappa opioid receptor via a luminescent beta-arrestin assay. [Related pubchem assays (depositor defined):AID1777, AID1786, AID1966, AID2133, AID2136, AID2348, AID2352, AID2357, AID2359, AID2370, AID2420, AID2478, AID2491, AID2492, AID2493, AID2497, AID2498, AID2500, AID449737, AID488822, AID488842]. It is filed as functional.

Data set [11] has as its target T3, Mu-type opioid receptor. Put plainly: HTS Image-Based Screen for Agonists of the MOR Receptor. [Related pubchem assays (depositor defined):AID1777, AID1785, AID1786, AID2133]. The format is functional.
In data set [12] the target is T4, Delta-type opioid receptor. The data set can be described thus: HTS Image-Based Screen for Agonists of the DOR Receptor. [Related pubchem assays (depositor defined):AID1777, AID1786, AID2133]. The format is functional.
The target in data set [13] is DNA dC->dU-editing enzyme APOBEC-3A (Homo sapiens, UniProt P31941). The data set can be described thus: Dose Response confirmation of small molecule APOBEC3A DNA Deaminase Inhibitors via a fluorescence-based single-stranded DNA deaminase assay. [Related pubchem assays (depositor defined):AID493011, AID493024]. It is filed as functional.
Chain of DNA dC->dU-editing enzyme APOBEC-3A (P31941 whole entry): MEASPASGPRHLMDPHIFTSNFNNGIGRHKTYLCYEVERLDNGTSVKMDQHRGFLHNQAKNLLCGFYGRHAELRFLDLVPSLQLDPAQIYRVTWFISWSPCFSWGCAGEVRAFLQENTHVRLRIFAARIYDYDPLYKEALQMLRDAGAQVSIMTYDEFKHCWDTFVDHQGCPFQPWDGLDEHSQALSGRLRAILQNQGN
A further data set concerns the target Troponin, cardiac muscle (Homo sapiens, UniProt P19429+P45379+P63316). Put plainly: Fluorescence-based biochemical high throughput dose response assay for activators of the calcium sensitivity of cardiac Regulated Thin Filaments (RTF). [Related pubchem assays (depositor defined):AID493008, AID493018, AID504382, AID504383]. It is filed as protein-complex assay.

Another data set deals with INS1. The data set can be described thus: beta cell apoptosis inhibitors, cytokine rescue, dose response, luminescence, retest (AID 449756).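 Also: cell death triggered by IL-1 beta plus TNF-alpha plus IFN-gamma mixture; protective hits raise ATP signal compared with cytokine alone wells.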 It is filed as functional, cell-based. As to conditions: Rattus norvegicus.
Data set [14] addresses G-protein coupled receptor 35 (Homo sapiens, UniProt Q9HC97). Put plainly: GPR35 antagonists blocking zaprinast-driven arrestin recruitment, primary screen, imaging, U2OS, beta-arrestin-GFP, zaprinast agonist (AID 2058).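 Also: antagonist potency meaning inhibition of agonist-induced arrestin redistribution.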 It is filed as functional.
For data set [15], the target named is G-protein coupled receptor 55 (Homo sapiens, UniProt Q9Y2T6). Put plainly: GPR55 antagonists, SAR follow-up, counter-screen for GPR35 antagonist project, imaging, image-based (AID 2397). It is filed as functional.
Chain of G-protein coupled receptor 55 (Q9Y2T6 whole entry): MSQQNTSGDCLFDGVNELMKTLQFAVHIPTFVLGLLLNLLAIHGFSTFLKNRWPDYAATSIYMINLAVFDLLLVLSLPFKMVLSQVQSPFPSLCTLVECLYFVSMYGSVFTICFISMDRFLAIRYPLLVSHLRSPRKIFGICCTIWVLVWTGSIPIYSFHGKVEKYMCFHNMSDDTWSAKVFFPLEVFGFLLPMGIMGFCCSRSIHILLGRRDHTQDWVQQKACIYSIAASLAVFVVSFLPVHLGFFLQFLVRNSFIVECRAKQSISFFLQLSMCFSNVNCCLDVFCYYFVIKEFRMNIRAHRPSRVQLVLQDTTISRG
The nature of data set [16]: inhibitors of intracellular T. cruzi replication, confirmation, NIH3T3 host cells, beta-gal luminescence (AID 2044).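 Also: intracellular parasites grown in NIH/3T3 mouse fibroblasts as host cells; luminescent beta-galactosidase reporter signal from transgenic T. cruzi replicating inside host cells; inhibitors lower the luminescence signal.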 It is filed as functional, cell-based.
In data set [17] the target is DNA dC->dU-editing enzyme APOBEC-3G (Homo sapiens, UniProt Q9HC16). It is filed as functional.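 Also: Dose-response counterscreen measuring inhibition of APOBEC3G DNA deaminase activity, run while confirming APOBEC3A inhibitors.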
Chain of DNA dC->dU-editing enzyme APOBEC-3G (Q9HC16 whole entry): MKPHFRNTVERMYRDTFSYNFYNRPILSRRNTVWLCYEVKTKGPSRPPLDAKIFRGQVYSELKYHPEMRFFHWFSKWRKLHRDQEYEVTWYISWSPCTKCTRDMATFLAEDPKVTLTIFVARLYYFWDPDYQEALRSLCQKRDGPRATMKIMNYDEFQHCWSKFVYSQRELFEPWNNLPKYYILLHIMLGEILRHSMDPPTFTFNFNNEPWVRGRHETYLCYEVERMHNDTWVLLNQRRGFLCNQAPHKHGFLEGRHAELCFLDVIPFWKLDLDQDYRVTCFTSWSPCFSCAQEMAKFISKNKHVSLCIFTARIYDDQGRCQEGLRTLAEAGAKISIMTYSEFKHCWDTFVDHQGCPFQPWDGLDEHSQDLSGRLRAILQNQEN
The nature of data set [18]: cytotoxicity toward NIH3T3 fibroblasts, dose response, counter-screen, cell-based, ATP luminescence, mouse fibroblasts (AID 2010).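 Also: cells exposed to compound for about 90 hours before reading.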 It is filed as functional.
For data set [19], the target named is T5, Mannose-6-phosphate isomerase (Homo sapiens, UniProt P34949).
T5 sequence (P34949 whole entry): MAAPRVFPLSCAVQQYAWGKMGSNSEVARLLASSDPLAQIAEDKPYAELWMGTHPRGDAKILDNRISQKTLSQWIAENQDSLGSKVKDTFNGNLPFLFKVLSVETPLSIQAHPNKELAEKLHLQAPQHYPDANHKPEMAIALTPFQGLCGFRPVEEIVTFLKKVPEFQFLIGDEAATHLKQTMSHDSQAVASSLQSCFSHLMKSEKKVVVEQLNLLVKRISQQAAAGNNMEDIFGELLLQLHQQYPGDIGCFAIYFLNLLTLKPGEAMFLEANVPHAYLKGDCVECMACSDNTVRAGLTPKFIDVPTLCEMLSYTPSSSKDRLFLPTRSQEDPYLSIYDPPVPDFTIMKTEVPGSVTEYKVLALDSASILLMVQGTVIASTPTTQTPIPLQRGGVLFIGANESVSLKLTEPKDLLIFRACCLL
The data set can be described thus: PMI enzyme inhibitors, confirmation, biochemical, fluorescence intensity (AID 1535).

In the next data set the target is Phosphomannomutase 2 (Homo sapiens, UniProt O15305). The data set can be described thus: Counter screen SAR assay for PMM2 inhibitors via a fluorescence intensity assay. [Related pubchem assays (depositor defined):AID1545, AID1574].
Chain of Phosphomannomutase 2 (O15305 whole entry): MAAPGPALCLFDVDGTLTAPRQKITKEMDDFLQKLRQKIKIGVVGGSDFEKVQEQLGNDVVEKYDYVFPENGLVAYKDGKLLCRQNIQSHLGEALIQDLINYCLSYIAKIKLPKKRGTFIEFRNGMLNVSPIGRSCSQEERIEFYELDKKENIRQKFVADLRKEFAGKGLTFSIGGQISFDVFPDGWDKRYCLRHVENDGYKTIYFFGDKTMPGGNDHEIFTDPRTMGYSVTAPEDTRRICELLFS

Chain of G-protein coupled receptor 35 (Q9HC97 whole entry): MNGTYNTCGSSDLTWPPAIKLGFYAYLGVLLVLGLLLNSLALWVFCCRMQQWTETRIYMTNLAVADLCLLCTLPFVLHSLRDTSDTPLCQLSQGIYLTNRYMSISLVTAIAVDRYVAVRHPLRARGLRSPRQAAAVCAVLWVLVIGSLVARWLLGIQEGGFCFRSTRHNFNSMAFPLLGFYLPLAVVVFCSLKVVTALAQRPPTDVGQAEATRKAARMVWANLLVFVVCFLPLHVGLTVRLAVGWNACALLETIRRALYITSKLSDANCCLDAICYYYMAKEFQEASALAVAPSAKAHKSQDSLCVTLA

As for `CC(C)CN1CC2(CCN(C(=O)c3csnn3)CC2)C1`, at Cytochrome P450 1A2, the AC50 entry is “inactive”.

On to `CCC(C)(C(=O)NC1CCCC1)N(Cc1cccs1)C(=O)c1ccccn1` (stereo not drawn), for which the IC50 (in data set [1]; at Mu-type opioid receptor [2]; in [4]; in data set [5]) was > 32 µM (inactive) throughout. Further, the EC50 on Mu-type opioid receptor [3] was > 32 µM (inactive); in [6] it was 1.86 µM; in [7], 0.806 µM (active); in data set [8] it was > 32 µM (inactive); in data set [9] it was 2.13 µM; in [10], 2.07 µM (active). For the same molecule, the EC50 (on Mu-type opioid receptor [11]; in data set [12]) was > 32 µM (inactive) each time.

In the case of `C=CCn1c(C)c(/C=C/c2cc[n+](C)cc2)c2ccccc21`, the IC50 is > 100 µM (inactive) in data set [13], 1.97 µM (active) in data set [14], 2.79 µM (active) in data set [15] and 16.3 µM (active) in [17]. Also, the concentration for a half-maximal effect (EC50) on Troponin, cardiac muscle was 1.88 µM (active); in [16] it was 0.69 µM (active); in data set [18], > 60 µM (not active). Also, the concentration at half-maximal activity (AC50) in the data set with INS1 is 6.54 µM (active).

Consider `Clc1nss/c1=N\c1nncs1`, for which the concentration for half-maximal inhibition (IC50) was 3.1 µM (active) and 2.3 µM (active) in data set [19]; > 100 µM (inactive) at Phosphomannomutase 2.
